# From the supplement of paper PMC10307832
# What was measured:
# Test in all cases: relative viability (nuclei count vs DMSO), 5 days (fraction); higher = more cells survive
# [1] = compound: CC1=CC(=CC=C1)NC2=NC(=CS2)C3=CC=NC=C3 + Cc1nc(Nc2ncc(C(=O)Nc3c(C)cccc3Cl)s2)cc(N2CCN(CCO)CC2)n1 [Dasatinib] (partner 0.075 µM)
# In short: (§1)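 Relative viability divides the nuclei count in treated wells by that in vehicle wells. Lung cancer cell lines were seeded in 1536-well plates, dosed by pin tool the next day, and fixed and stained after 5 days in one step with final 0.05% Triton X-100, 1% formaldehyde and 1 ug/ml Hoechst. Dosing was a single drug or a fixed anchor-drug dose plus five library-drug doses (not always all listed) in √10 steps, and values are medians of duplicate plates imaged at 4×.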
# Masitinib + Pictilisib = compound: Cc1ccc(NC(=O)c2ccc(CN3CCN(C)CC3)cc2)cc1Nc1nc(-c2cccnc2)cs1 [Masitinib] + CS(=O)(=O)N1CCN(Cc2cc3nc(-c4cccc5[nH]ncc45)nc(N4CCOCC4)c3s2)CC1 [Pictilisib] (partner 1 µM)
# In short: as §1
# [2] = compound: CC1=CC(=CC=C1)NC2=NC(=CS2)C3=CC=NC=C3 + O=C(c1cc(Cc2n[nH]c(=O)c3ccccc23)ccc1F)N1CCN(C(=O)C2CC2)CC1 [Olaparib] (partner 8 µM)
# In short: as §1
# Masitinib + Olaparib = compound: Cc1ccc(NC(=O)c2ccc(CN3CCN(C)CC3)cc2)cc1Nc1nc(-c2cccnc2)cs1 [Masitinib] + O=C(c1cc(Cc2n[nH]c(=O)c3ccccc23)ccc1F)N1CCN(C(=O)C2CC2)CC1 [Olaparib] (partner 8 µM)
# In short: as §1
cell line,measurement,setting,value
UMC-11,relative viability,[1]; first compound 0.08 µM,0.477
same,relative viability,[1]; first compound 0.253 µM,0.494
same,relative viability,[1]; first compound 0.8 µM,0.468
same,relative viability,[1]; first compound 2.53 µM,0.481
same,relative viability,[1]; first compound 8 µM,0.534
same,relative viability,Masitinib + Pictilisib; first compound 0.01 µM,0.744
same,relative viability,Masitinib + Pictilisib; first compound 0.03162 µM,0.862
same,relative viability,Masitinib + Pictilisib; first compound 0.1 µM,0.948
same,relative viability,Masitinib + Pictilisib; first compound 0.3162 µM,0.972
same,relative viability,Masitinib + Pictilisib; first compound 1 µM,0.856
same,relative viability,[2]; first compound 0.08 µM,0.339
same,relative viability,[2]; first compound 0.253 µM,0.386
same,relative viability,[2]; first compound 0.8 µM,0.381
same,relative viability,[2]; first compound 2.53 µM,0.806
same,relative viability,[2]; first compound 8 µM,0.402
same,relative viability,Masitinib + Olaparib; first compound 0.01 µM,0.354
same,relative viability,Masitinib + Olaparib; first compound 0.03162 µM,0.371
same,relative viability,Masitinib + Olaparib; first compound 0.1 µM,0.372
same,relative viability,Masitinib + Olaparib; first compound 0.3162 µM,0.376
same,relative viability,Masitinib + Olaparib; first compound 1 µM,0.398
